Experimental data reported in patent publication US20070053931A1, “Dietary supplements for treating hypertension” (ULTRA BIOTECH LIMITED, priority 2002, published 2007).

Tested on: Wistar rats
Assay: Control of essential hypertension in Wistar rats (testosterone propionate-induced blood pressure elevation)
Assay type: in vivo, rat
Procedure: Unless otherwise specified, all compositions of interest were administered to the animals by intragastric feeding.
To test the ability of the activated yeast compositions to reduce blood pressure, thirty-two healthy Wistar rats of average weight of about 200±20 g (8-10 months old, half of them male and the other half female) were randomly divided into four equal groups, Groups A, B, C and D. Blood pressure of each rat was measured with a manometer for three consecutive days. After three days, each rat was subcutaneously injected with 4 mg of testosterone propionate in 0.4 ml of sesame oil per day for fourteen consecutive days.
A composition of interest (2 ml/kg/day) was then administered to each rat for sixteen consecutive days, while their blood pressure level was monitored every four days. Rats in Groups A, B, C and D received distilled water, reserpine, the activated yeast composition and the control yeast composition, respectively.

With `COC(=O)[C@H]1[C@H]2C[C@@H]3c4[nH]c5cc(OC)ccc5c4CCN3C[C@H]2C[C@@H](OC(=O)c2cc(OC)c(OC)c(OC)c2)[C@@H]1OC` [reserpine] as the compound, how does the “Blood Pressure After Administration of a Composition” value (Wistar rats made hypertensive with 4 mg/day s.c. testosterone propionate for 14 days, composition 2 ml/kg/day intragastric for sixteen consecutive days) read?
Its value is 15.3 ± 0.89 kPa.

What about the “Change in Blood Pressure (Value in Col. 3 − Value in Col. 2)” value (after administration of composition vs after testosterone injection, 2 ml/kg/day intragastric, 16 days) of the same compound?
The value was 1.4 ± 0.33 kPa.
